Measurements reported in US20210181109A1 (FUJIFILM Corporation, priority 2018, published 2021).

Assays:
[1] = NAC depletion percent, HPLC-fluorescence detection
Protocol: (§1) 1) To a 50 mL vessel, 11.6 mg (±0.1 mg) of NAC is weighed; to this, a 25 mL measuring pipet is used to add 20 mL of 100 mmol/L phosphate buffer (pH: 8.0); and the content is gently stirred using a test tube mixer to achieve dissolution (2 mmol/L). 2) To a 500 mL vessel, 149.5 mL of this buffer is added using a 50 mL measuring pipet; to this, 0.5 mL of the above-described 2 mmol/L NAC solution is added; and the content is mixed by inversion to achieve 300-fold dilution (6.667 μmon).
(§2) The test substance undiluted solution is defined as an “undiluted solution”, and used. Incidentally, this “undiluted solution” may be appropriately diluted to, for example, 1/10, 1/100, or 1/1000, using an appropriate solvent, and the resultant solution may be used.
(§3) Subsequently, the solution having the maximum dissolution concentration is defined as an “undiluted solution”, and tested. Incidentally, this “undiluted solution” may be appropriately diluted to, for example, 1/10, 1/100, or 1/1000, using an appropriate solvent, and the resultant solution may be used.
(§4) The test substance is prepared at 1 mmol/L in any of solvents that are water, acetonitrile, acetone, and a 5 mass % dimethyl sulfoxide (DMSO)/acetonitrile solution and used as a test substance solution. As the solvent, a solvent in which the test substance dissolves at 1 mmol/L is used; when the test substance is soluble in a plurality of solvents, the solvent is selected in the following order of decreasing precedence: water, acetonitrile, acetone, and 5 mass % DMSO/acetonitrile.
(§5) Test substance solutions are prepared on a 96-well plate (U96 PP-0.5 ML NATURAL, Thermo Fisher Scientific Inc. (NUNC)) mainly using a 12-channel pipette, and a reagent is added in accordance with the following formula.
(§6) Nucleophilic reagent (NAC and NAL): 150 μL
(§7) Test substance solution: 50 μL
(§8) The plate is tightly sealed using a plate sealing (Resistant embossed seal, SHIMADZU GLC Ltd.), and stirred using a plate shaker (Titramax 100, Heidolph Instruments GmbH & CO. KG). The plate is subjected to spinning down using a centrifuge, and then to incubation at 25° C., for 24 hours, in a light-shielded state.
(§9) After the incubation for 24 hours, the plate sealing is removed; to each sample, 50 µL of the reaction stopping solution is added to stop the reaction.
(§10) The HPLC measurement conditions for the nucleophilic reagents are as follows.
(§11) From the average values (each, n=3) of peak areas of the post-reaction unreacted NAC or NAL and the blank-test (after performing the reaction step without addition of the test substances) NAC or NAL, the following formula is used to calculate the depletion percent of NAC or NAL.
(§12) NAC depletion percent (% depletion)=[1−(Average value of peak areas of post-reaction unreacted NAC/Average value of peak areas of blank-test (after performing the reaction step without addition of the test substances) NAC)]×100
(§13) The average value of peak areas of the post-reaction unreacted NAC is the average value of areas obtained by measuring three times post-reaction unreacted NAC. The average value of peak areas of blank-test (after performing the reaction step without addition of the test substances) NAC is the average value of areas obtained by measuring three times blank-test (after performing the reaction step without addition of the test substances) NAC.
(§14) The reactions were each performed on a 96-well plate, and the number of samples of each case was set to n=3. In addition, as controls, reaction solutions including the solvent alone were prepared. The reaction solutions were prepared so as to have a NAC or NAL concentration of 5 μmon. To the reaction solutions after the lapse of 24 hours, a trifluoroacetic acid (TFA) aqueous solution was added such that the final concentration became 0.5% (v/v) TFA. Subsequently, HPLC was performed for measurements by two detection methods that were light absorption detection using a photodiode array (PDA) detector, and fluorescence detection using a fluorescence detector.

[2] = Average score of NAC and NAL depletion and prediction of skin allergenicity, fluorescence method; details: for Average score: test substance solution 1 mmol/L
Protocol: (§15) The average value (Average Score) of NAC and NAL depletion percents is calculated. In the resultant value, the second decimal place is rounded off.
(§16) Average value (Average Score) of NAC and NAL depletion percents=(NAC depletion percent+NAL depletion percent)/2
(§17) The depletion percent of at least one of NAC or NAL or the average score of the depletion percents of NAC and NAL is calculated, and whether or not the test substances are “allergenic substances” or “non-allergenic substances” is determined:
(§18) (1) in a case of performing evaluation based on the average value of the depletion percent of NAC and the depletion percent of NAL,
(§19) In the following Tables, S represents as being an allergenic substance and NS represents as being a non-allergenic substance.

[3] = NAC depletion percent, HPLC-UV detection (281 nm)
Protocol: as §1, §2, §3, §4, §5, §6, §7, §8, §9, §10, §11, §12, §13, §14

[4] = Average score of NAC and NAL depletion and prediction of skin allergenicity, UV method; details: for Average score: test substance solution 1 mmol/L
Protocol: as §15, §16, §17, §18, §19

[5] = NAL depletion percent, HPLC-UV detection (281 nm)
Protocol: as §1, with “12.6” for “11.6”, “NAL” for “NAC”, “10.2);” for “8.0);”, “mixture” for “mixer”, “mmol/L NAL solution).” for “mmol/L).”, “μmol/L).” for “μmon).”
as §2, §3, §4, §5, §6, §7, §8, §9, §10, §11
(§20) NAL depletion percent (% depletion)=[1−(Average value of peak areas of post-reaction unreacted NAL/Average value of peak areas of blank-test (after performing the reaction step without addition of the test substances) NAL)]×100
(§21) The average value of peak areas of post-reaction unreacted NAL is the average value of areas obtained by measuring three times post-reaction unreacted NAL. The average value of peak areas of blank-test (after performing the reaction step without addition of the test substances) NAL is the average value of areas obtained by measuring three times blank-test (after performing the reaction step without addition of the test substances) NAL.
as §14

[6] = NAL depletion percent, HPLC-fluorescence detection
Protocol: as §1, with “12.6” for “11.6”, “NAL” for “NAC”, “10.2);” for “8.0);”, “mixture” for “mixer”, “mmol/L NAL solution).” for “mmol/L).”, “μmol/L).” for “μmon).”
as §2, §3, §4, §5, §6, §7, §8, §9, §10, §11, §20, §21, §14

[7] = Fluorescence method, non-allergenic substance
[8] = Fluorescence method, skin allergenicity prediction
[9] = Reference (UV method), non-allergenic substance
[10] = Reference (UV method), skin allergenicity prediction
[11] = single substance, test substance solution 1 mmol/L, fluorescence method
[12] = single substance, fluorescence method
[13] = single substance, test substance solution 1 mmol/L, Reference (UV method)
[14] = single substance, Reference (UV method)
[15] = single substance, fluorescence method, criterion average score […]
[16] = single substance, Reference (UV method), criterion average score […]

| Structure (SMILES) | NAC depletion (%) [1, 7] [%] | Prediction result [2, 8] | NAC depletion (%) [3, 9] [%] | Prediction result [4, 10] | NAL depletion (%) [5, 9] [%] | NAL depletion (%) [6, 7] [%] | other results |
| --- | --- | --- | --- | --- | --- | --- | --- |
| O=C(O)c1ccccc1O [Salicylic acid] | 0.1 | NS (NS represents as being a non-allergenic substance) | 0.0 | NS (NS represents as being a non-allergenic substance) | 0.4 | 4.3 | – |
| CC(C)=CCCC(C)=CCCC(C)=CC=O [Farnesal] | – | – | – | – | – | – | NAC depletion (%) [1, 11]: 22.4%; Prediction result [2]: S (key: S represents as being an allergenic substance; NS represents as being a non-allergenic substance); Average score [2, 12]: 13.6%; NAC depletion (%) [3, 13]: 17.2%; Prediction result [4]: S (key: S represents as being an allergenic substance; NS represents as being a non-allergenic substance); Average score [4, 14]: 13.0%; NAL depletion (%) [5, 13]: 8.8%; NAL depletion (%) [6, 11]: 4.9% |
| CCCCCC [Hexane] | – | NS (NS represents as being a non-allergenic substance) | – | NS (NS represents as being a non-allergenic substance) | – | – | NAC depletion (%) [1]: 0.0%; NAC depletion (%) [3]: 0.2%; NAL depletion (%) [5]: 0.9%; NAL depletion (%) [6]: 0.0% |
| CCOC(=O)c1ccccc1C(=O)OCC [Diethyl phthalate] | 0.0 | NS (NS represents as being a non-allergenic substance) | 0.0 | NS (NS represents as being a non-allergenic substance) | 1.7 | 0.2 | – |
| CC(C)O [Isopropanol] | 1.1 | NS (NS represents as being a non-allergenic substance) | 0.1 | NS (NS represents as being a non-allergenic substance) | 2.8 | 4.6 | – |
| Cc1ccc2oc(=O)ccc2c1 [6-Methylcoumarin] | 1.3 | NS (NS represents as being a non-allergenic substance) | 0.0 | NS (NS represents as being a non-allergenic substance) | 1.0 | 0.1 | – |
| O=[N+]([O-])c1ccc(Cl)c([N+](=O)[O-])c1 [2,4-Dinitrochlorobenzene] | – | – | – | – | – | – | NAC depletion (%) [1, 11]: 91.6%; Prediction result [2, 15]: S (S represents as being an allergenic substance); Average score [2, 12]: 45.8%; NAC depletion (%) [3, 13]: 89.3%; Prediction result [4, 16]: S (S represents as being an allergenic substance); Average score [4, 14]: 47.7%; NAL depletion (%) [5, 13]: 6.1%; NAL depletion (%) [6, 11]: 0.0% |
| Nc1ccc(S(N)(=O)=O)cc1 [Sulfanilamide] | 0.5 | NS (NS represents as being a non-allergenic substance) | 0.0 | NS (NS represents as being a non-allergenic substance) | 1.4 | 3.6 | – |
| O=C(O)c1ccc(O)cc1 [4-Hydroxybenzoic acid] | 2.9 | NS (NS represents as being a non-allergenic substance) | 0.0 | NS (NS represents as being a non-allergenic substance) | −1.4 | 0.1 | – |
| COc1ccc(C(C)=O)cc1 [4′-Methoxyacetophenone] | 1.2 | NS (NS represents as being a non-allergenic substance) | 3.3 | NS (NS represents as being a non-allergenic substance) | 3.3 | 0.0 | – |
| C=C(C)C(=O)OCC(C)O (stereo not drawn) [2-Hydroxypropyl methacrylate] | 2.0 | NS (NS represents as being a non-allergenic substance) | 2.4 | NS (NS represents as being a non-allergenic substance) | 2.2 | 0.2 | – |
| O=C(OCc1ccccc1)c1ccccc1 [Benzyl benzoate] | – | – | – | – | – | – | NAC depletion (%) [1, 11]: 0.0%; Average score [2, 12]: 0.1%; NAC depletion (%) [3, 13]: 0.0%; Average score [4, 14]: 1.4%; NAL depletion (%) [5, 13]: 2.8%; NAL depletion (%) [6, 11]: 0.3% |
| CCCCCCCC(=O)O [Octanoic acid] | 0.0 | NS (NS represents as being a non-allergenic substance) | 0.0 | NS (NS represents as being a non-allergenic substance) | 1.2 | 0.0 | – |
| Oc1cccc(O)c1 [Resorcinol] | – | – | – | – | – | – | NAC depletion (%) [1, 11]: 0.8%; Prediction result [2, 15]: NS (NS represents as being a non-allergenic substance); Average score [2, 12]: 1.2%; NAC depletion (%) [3, 13]: 4.0%; Prediction result [4, 16]: NS (NS represents as being a non-allergenic substance); Average score [4, 14]: 3.1%; NAL depletion (%) [5, 13]: 2.2%; NAL depletion (%) [6, 11]: 1.6% |
